The record followed here is patent US8563542B2 (Cyclacel Limited, priority 2007, dated 2013).

Broadly, the IC50 is the concentration needed to halve the response being measured.

Read-outs that look alike come from different tables or passages of the source.

The target of one assay is PLK1 (Homo sapiens, UniProt P53350). The experiment in a line: PLK1 protein kinase assay (CDC25C phosphorylation, [γ-32P]-ATP). The assay is classed as biochemical. As to conditions: read-out: PLK1 IC50.
For a further assay, the target named is T1, AA (Homo sapiens, UniProt O14965).
T1 sequence (O14965 1-403): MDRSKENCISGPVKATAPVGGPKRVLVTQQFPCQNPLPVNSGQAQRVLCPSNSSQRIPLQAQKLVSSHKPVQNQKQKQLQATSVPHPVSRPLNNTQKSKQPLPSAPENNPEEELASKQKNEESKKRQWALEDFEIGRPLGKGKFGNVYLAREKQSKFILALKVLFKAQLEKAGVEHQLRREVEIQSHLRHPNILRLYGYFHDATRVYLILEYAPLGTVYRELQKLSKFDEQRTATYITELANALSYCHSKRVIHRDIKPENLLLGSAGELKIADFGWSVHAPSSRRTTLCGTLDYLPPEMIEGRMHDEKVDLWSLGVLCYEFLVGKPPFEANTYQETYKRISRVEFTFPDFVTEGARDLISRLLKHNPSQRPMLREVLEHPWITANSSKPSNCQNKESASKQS
The experiment in a line: AA IC50 (Table 1; no method given). The assay is classed as biochemical.

The mark [1] stands for this setting: Table 2, PLK1 IC50, class symbols.
The mark [2] stands for this setting: Table 2, AurA IC50, class symbols, read-out: AurA IC50.

PLK1, sequence (P53350 whole entry): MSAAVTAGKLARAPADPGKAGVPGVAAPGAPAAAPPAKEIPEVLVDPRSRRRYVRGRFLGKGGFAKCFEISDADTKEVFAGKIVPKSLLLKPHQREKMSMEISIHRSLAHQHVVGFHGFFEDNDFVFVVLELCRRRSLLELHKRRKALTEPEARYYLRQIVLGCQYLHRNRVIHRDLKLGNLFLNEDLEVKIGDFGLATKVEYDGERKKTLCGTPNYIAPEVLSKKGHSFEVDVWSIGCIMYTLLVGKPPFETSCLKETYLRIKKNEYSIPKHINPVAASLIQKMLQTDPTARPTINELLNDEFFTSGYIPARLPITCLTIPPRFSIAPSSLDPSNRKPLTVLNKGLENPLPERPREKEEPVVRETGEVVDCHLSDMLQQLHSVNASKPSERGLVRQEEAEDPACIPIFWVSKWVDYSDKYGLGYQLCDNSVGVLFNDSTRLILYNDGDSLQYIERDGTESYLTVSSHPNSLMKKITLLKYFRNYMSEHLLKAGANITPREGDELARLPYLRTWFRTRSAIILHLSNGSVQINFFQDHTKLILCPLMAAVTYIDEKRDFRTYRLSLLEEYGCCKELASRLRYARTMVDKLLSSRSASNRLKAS

With `CC1CC(=O)N(C)c2cnc(Nc3ccc(C(=O)O)cc3)nc2N1C1CCCC1` (stereo not drawn) [compound 8, 4-(9-Cyclopentyl-5,8-dimethyl-6-oxo-6,7,8,9-tetrahydro-5H-pyrimido[4,5-b][1,4]diazepin-2-ylamino)-benzoic acid], the concentration for half-maximal inhibition (IC50) on PLK1 (Table 1) is less than 1000 nM; on AA (Table 1, read-out: AA IC50), less than 100 nM.
On to `CC1CC(=O)Nc2cnc(Nc3ccc(C(=O)O)cc3)nc2N1C1CCCC1` (stereo not drawn) [compound 7], for which the IC50 is less than 1000 nM at PLK1 (Table 1) and 1000 to 10000 nM at AA (Table 1, read-out: AA IC50).
Consider `Cc1c(Nc2ncc3c(n2)N(C2CCCC2)CCC(=O)N3C)cccc1C(=O)NC1CCN(C)CC1` [compound 140, 3-(9-Cyclopentyl-5-methyl-6-oxo-6,7,8,9-tetrahydro-5H-pyrimido[4,5-b][1,4]diazepin-2-ylamino)-2-methyl-N-(1-methyl-piperidin-4-yl)-benzamide], for which the IC50 at PLK1 (setting [1]) and at AA (setting [2]) was less than 10000 nM in each case.
Consider `CN1CCC(NC(=O)c2ccc(Nc3ncc4c(n3)N(C3CCCC3)CC3(CC3)C(=O)N4C)cc2)CC1` [compound 349, 4-(9-Cyclopentyl-5-methyl-6-oxo-6,7,8,9-tetrahydro-5H-spiro[pyrimido[4,5-b][1,4]diazepin-3,1'-cyclopropane]-2-ylamino)-N-(1-methyl-piperidin-4-yl)-benzamide], for which the IC50 is less than 1000 nM on PLK1 (setting [1]) and less than 10000 nM on AA (setting [2]).
As to `CC1CC(=O)N(C)c2cnc(Nc3ccc(C(=O)NC4CCN(C)CC4)cc3)nc2N1C1CCCC1` (stereo not drawn) [compound 37, 4-(9-Cyclopentyl-5,8-dimethyl-6-oxo-6,7,8,9-tetrahydro-5H-pyrimido[4,5-b][1,4]diazepin-2-ylamino)-N-(1-methyl-piperidin-4-yl)-benzamide], the half-inhibitory concentration (IC50) on PLK1 (Table 1) was less than 1000 nM; on AA (Table 1, read-out: AA IC50), 100 to 1000 nM.
For `CN1C(=O)CCN(C2CCCC2)c2nc(Nc3ccc4sc(C(=O)O)cc4c3)ncc21` [compound 296], the IC50 was less than 1000 nM on PLK1 (setting [1]) and less than 100 nM at AA (setting [2]).
`CN1C(=O)CCN(C2CCCC2)c2nc(Nc3ccc(C(N)=O)cc3)ncc21` [compound 83, 4-(9-Cyclopentyl-5-methyl-6-oxo-6,7,8,9-tetrahydro-5H-pyrimido[4,5-b][1,4]diazepin-2-ylamino)-benzamide]: the figures for the IC50 on PLK1 (setting [1]) and at AA (setting [2]) were less than 1000 nM and less than 100 nM, respectively.
For `Cc1cc(Nc2ncc3c(n2)N(C2CCCC2)CCC(=O)N3C)ccc1NC(=O)C(C)(C)C` [compound 287, N-[4-(9-Cyclopentyl-5-methyl-6-oxo-6,7,8,9-tetrahydro-5H-pyrimido[4,5-b][1,4]diazepin-2-ylamino)-2-methyl-phenyl]-2,2-dimethyl-propionamide] the same measures were less than 10000 nM and less than 100 nM.
For `CN1C(=O)CCN(C2CCCC2)c2nc(Nc3ccc(Cl)cc3)ncc21` [compound 123, 2-(4-Chloro-phenylamino)-9-cyclopentyl-5-methyl-5,7,8,9-tetrahydro-pyrimido[4,5-b][1,4]diazepin-6-one] the same measures were less than 1000 nM and less than 1000 nM.
For `COc1cc(Nc2ncc3c(n2)N(C2CCCC2)CCC(=O)N3C)ccc1C(=O)NC1CCN(C)CC1` [compound 58, 4-(9-Cyclopentyl-5-methyl-6-oxo-6,7,8,9-tetrahydro-5H-pyrimido[4,5-b][1,4]diazepin-2-ylamino)-2-methoxy-N-(1-methyl-piperidin-4-yl)-benzamide] the same measures were less than 1000 nM and less than 100 nM.
With `CC(=O)Nc1ccc(Nc2ncc3c(n2)N(C2CCCC2)CCC(=O)N3C)cc1` [compound 171, N-[4-(9-Cyclopentyl-5-methyl-6-oxo-6,7,8,9-tetrahydro-5H-pyrimido[4,5-b][1,4]diazepin-2-ylamino)-phenyl]-acetamide], the half-maximal inhibitory concentration (IC50) at PLK1 (setting [1]) is less than 10000 nM; at AA (setting [2]), less than 100 nM.
For `CN1C(=O)CCN(C2CCCC2)c2nc(NCc3ccc(-c4csnn4)cc3)ncc21` [compound 132, 9-Cyclopentyl-5-methyl-2-(4-[1,2,3]thiadiazol-4-yl-benzylamino)-5,7,8,9-tetrahydro-pyrimido[4,5-b][1,4]diazepin-6-one] the same measures were less than 10000 nM and less than 10000 nM.
For `Cc1cc2cc(Nc3ncc4c(n3)N(C3CCCC3)CCC(=O)N4C)ccc2[nH]1` [compound 125, 9-Cyclopentyl-5-methyl-2-(2-methyl-1H-indol-5-ylamino)-5,7,8,9-tetrahydro-pyrimido[4,5-b][1,4]diazepin-6-one] the same measures were less than 1000 nM and less than 100 nM.
As for `CC1CN(C2CCCC2)c2nc(Nc3ccc4c(c3)CS(=O)(=O)C4)ncc2N(C)C1=O` (stereo not drawn) [compound 76, 9-Cyclopentyl-2-(2,2-dioxo-2,3-dihydro-1H-2lambda*6*-benzo[c]thiophen-5-ylamino)-5,7-dimethyl-5,7,8,9-tetrahydro-pyrimido[4,5-b][1,4]diazepin-6-one], the figures for the IC50 on PLK1 (setting [1]) and on AA (setting [2]) were less than 1000 nM and less than 100 nM, respectively.
As for `CN1C(=O)CCN(C2CCCC2)c2nc(Nc3ccc(CCC(=O)O)cc3)ncc21` [compound 170, 3-[4-(9-Cyclopentyl-5-methyl-6-oxo-6,7,8,9-tetrahydro-5H-pyrimido[4,5-b][1,4]diazepin-2-ylamino)-phenyl]-propionic acid], the IC50 at PLK1 (setting [1]) was less than 10000 nM; on AA (setting [2]) it was less than 100 nM.
In the same order, the values of `CN1CCC(NC(=O)CCc2ccc(Nc3ncc4c(n3)N(C3CCCC3)CCC(=O)N4C)cc2)CC1` [compound 180, 3-[4-(9-Cyclopentyl-5-methyl-6-oxo-6,7,8,9-tetrahydro-5H-pyrimido[4,5-b][1,4]diazepin-2-ylamino)-phenyl]-N-(1-methyl-piperidin-4-yl)-propionamide] are less than 10000 nM and less than 100 nM.
On to `CN1C(=O)CCN(c2ccccc2)c2nc(Nc3ccc(C(=O)O)cc3)ncc21` [compound 15, 4-(5-Methyl-6-oxo-9-phenyl-6,7,8,9-tetrahydro-5H-pyrimido[4,5-b][1,4]diazepin-2-ylamino)-benzoic acid], for which the IC50 on PLK1 (Table 1) was less than 10000 nM; at AA (Table 1, read-out: AA IC50), 100 to 1000 nM.
`CN1C(=O)CCN(C2CCCC2)c2nc(Nc3ccc4c(c3)C=CS4(=O)=O)ncc21` [compound 289, 9-Cyclopentyl-2-(1,1-dioxo-1H-1lambda*6*- benzo[b]thiophen-5-ylamino)-5-methyl-5,7,8,9-tetrahydro-pyrimido[4,5-b][1,4]diazepin-6-one]: the IC50 was less than 1000 nM on PLK1 (setting [1]) and less than 100 nM on AA (setting [2]).
`CN1C(=O)CCN(C2CCCC2)c2nc(Nc3cccc(S(=O)(=O)NCc4ccccc4)c3)ncc21` [compound 110, N-Benzyl-3-(9-cyclopentyl-5-methyl-6-oxo-6,7,8,9-tetrahydro-5H-pyrimido[4,5-b][1,4]diazepin-2-ylamino)-benzenesulfonamide]: the IC50 at PLK1 (setting [1]) is less than 10000 nM; at AA (setting [2]), less than 1000 nM.
In the same order, the values of `CC(C)N1CCC(=O)N(C)c2cnc(Nc3ccc4c(c3)CS(=O)(=O)C4)nc21` [compound 115, 2-(2,2-Dioxo-2,3-dihydro-1H-2lambda*6*- benzo[c]thiophen-5-ylamino)-9-isopropyl-5-methyl-5,7,8,9-tetrahydro-pyrimido[4,5-b][1,4]diazepin-6-one] are less than 10000 nM and less than 100 nM.
As to `Cc1cc(C(=O)O)ccc1Nc1ncc2c(n1)N(C1CCCC1)CCC(=O)N2C` [compound 174, 4-(9-Cyclopentyl-5-methyl-6-oxo-6,7,8,9-tetrahydro-5H-pyrimido[4,5-b][1,4]diazepin-2-ylamino)-3-methyl-benzoic acid], the IC50 at PLK1 (setting [1]) was less than 1000 nM; on AA (setting [2]), less than 10000 nM.
For `COc1cccc(Nc2ncc3c(n2)N(C2CCCC2)CCC(=O)N3C)c1` [compound 138, 9-Cyclopentyl-2-(3-methoxy-phenylamino)-5-methyl-5,7.8,9-tetrahydro-pyrimido[4,5-b][1,4]diazepin-6-one] the same measures were less than 10000 nM and less than 1000 nM.
For `CN1C(=O)CCN(C2CCCC2)c2nc(Nc3ccc4c(c3)CS(=O)(=O)C4)ncc21` [compound 46, 9-Cyclopentyl-2-(2,2-dioxo-2,3-dihydro-1H-2lambda*6*-benzo[c]thiophen-5-ylamino)-5-methyl-5,7,8,9-tetrahydro-pyrimido[4,5-b][1,4]diazepin-6-one] the same measures were less than 10000 nM and less than 100 nM.
Turning to `CN1CCC(NC(=O)c2ccc(Nc3ncc4c(n3)N(C3CCCC3)CCC(=O)N4C)c(F)c2)CC1` [compound 215, 4-(9-Cyclopentyl-5-methyl-6-oxo-6,7,8,9-tetrahydro-5H-pyrimido[4,5-b][1,4]diazepin-2-ylamino)-3-fluoro-N-(1-methyl-piperidin-4-yl)-benzamide], the IC50 on PLK1 (setting [1]) was less than 100 nM; at AA (setting [2]), less than 10000 nM.
For `CN1C(=O)CCN(C2CCCC2)c2nc(Nc3cccc(S(=O)(=O)N4CCNCC4)c3)ncc21` [compound 146] the same measures were less than 10000 nM and less than 10000 nM.
In the same order, the values of `COc1cccc(N2CCC(=O)N(C)c3cnc(Nc4ccc(C(=O)O)cc4)nc32)c1` [compound 49, 4-[9-(3-Methoxy-phenyl)-5-methyl-6-oxo-6,7,8,9-tetrahydro-5H-pyrimido[4,5-b][1,4]diazepin-2-ylamino]-benzoic acid] are less than 10000 nM and less than 10000 nM.
For `CN1C(=O)C2(CC2)CN(C2CCCC2)c2nc(Nc3ccc(C(=O)O)cc3)ncc21` [compound 84, 4-(9-Cyclopentyl-5-methyl-6-oxo-6,7,8,9-tetrahydro-5H-spiro[pyrimido[4,5-b][1,4]diazepin-3,1′-cyclopropane]-2-ylamino)-benzoic acid] the same measures were less than 1000 nM and less than 10000 nM.
